In data set [1] the test system is brain region of 5×FAD mice vs. WT mice. Put plainly: Real-time in vivo NIR fluorescence imaging. Further details: species or system mouse. As to conditions: 5 mg/kg. Here is the method:
DCM-OH-2-DT was chosen as the best candidate for real-time in vivo fluorescence imaging studies. Seven-month-old AD mice and age-matched wild type (WT) mice were injected with the compound at 5 mg/kg. The NIR fluorescence intensities from the brain region were collected and analyzed over time. […] These imaging results further support the potential in vivo application of the developed compounds.
In vivo Imaging Studies. The real-time in vivo fluorescence imaging studies were performed with IVIS imaging system. 7-month-old 5×FAD mice (n=3) and age-matched control B6SJLF1/J mice (n=3) were shaved at the brain region before background imaging. All mice were injected with DCM-OH-2-DT (5 mg/kg, 15% DMSO, 85% PBS) via jugular vein injection. The mice were kept on the imaging stage under anesthesia with 2.5% isoflurane gas in an oxygen flow (1.5 L/min) before the imaging and were woken up after the imaging. Fluorescence signals from the brain were recorded at 5-, 15-, 30-, 60-min after the injection of DCM-OH-2-DT with a filter set (excitation at 470 nm and emission at 740 nm). Imaging data was analyzed by Living Image software, and an ROI was drawn around the brain region. The data were analyzed by subtracting the background fluorescence intensity of each mouse. P values were calculated by Student's t test.

For the next data set, the target named is T1, Aβ42 fibrils (Homo sapiens, UniProt P05067).
T1 construct: commercial Aβ42 monomer powder (from GL biochem); purchased GL biochem
Put plainly: Fluorescence saturation binding assay with Aβ42 fibrils. As for the experimental part: Preparation of the Aβ42 Fibrils and Aβ42 Oligomers. Aβ42 fibrils: 1 mg of commercial Aβ42 monomer powder (from GL biochem) was dissolved in 1 mL 1,1,1,3,3,3-hexafluoro-2-propanol (HFIP) at room temperature and incubated for 1 h. The resulting solution was divided equally into two Eppendorf tubes. The solution in each Eppendorf tube containing 0.5 mg Aβ42 monomer was then evaporated overnight and dried by vacuum centrifuge to generate monomeric films. […] Aβ42 fibrils solution was prepared by dissolving the 0.5 mg monomeric films in 1.1 mL PBS buffer (with final DMSO concentration less than 1%) and stirring at 37° C. for 3 days.
(§1) In Vitro Saturation Binding Studies with Aβ42 Fibrils and Aβ42 Oligomers. To a solution of increasing concentrations of compounds, a fixed concentration of the generated aggregated Aβ42 fibrils or Aβ42 oligomers solutions (5 to 15 NM) was added to yield a total volume of 100 μL. Nonspecific binding was determined […]. The mixture was incubated for 15 min at room temperature. All fluorescence data were obtained on a SpectraMax M2e plate reader (Molecular Devices). The fluorescent intensity was measured at the corresponding emission wavelength of each compound, and the Kd binding curves were generated by GraphPad Prism 8.0 with one site-specific binding model. Equation: Y=Bmax*X/(Kd+X).

In data set [2] the test system is native Aβ aggregates in AD mice brain. Put plainly: BBB permeability: in vivo accumulation after intraperitoneal treatment, brain section colocalization. Also noted: species or system mouse. As to conditions: 12-month-old AD mice, 0.1 mg/Kg, 10 days. As for the experimental part: FIG. 13. In vivo accumulation of DCM-OH-2-DT. Fluorescence microscopy images of brain sections from 12-month-old 5×FAD mice administered with DCM-OH-2-DT for 10 days. The brain sections were stained with Thioflavin S (ThS); [ThS]=5 μM, scale bar=125 μm.
(§2) Fluorescence Imaging of 5×FAD Mouse Brain Sections and blood-brain barrier (BBB) permeability. To confirm the developed compounds can also bind to native Aβ aggregates, we performed fluorescence imaging studies and colocalization experiments on 5×FAD mouse brain sections. […] This further supports that the compounds are selective and can bind to native soluble Aβ oligomers. Before investigating the blood-brain barrier (BBB) permeability of the developed compounds, their neurotoxicity was measured first (FIG. 12). […] DCM-OH-2 leads to less than 80% cell viability even at 2 μM, which is probably due to its poor solubility. Nevertheless, the DCM-OH-2-DT was chosen as the candidate to test the blood-brain barrier (BBB) permeability. 12-month-old AD mice were treated with compound DCM-OH-2-DT (0.1 mg/Kg) for 10 days via intraperitoneal injection. At the end of treatment, mice brains were harvested and colocalization experiments were performed on the mice brain sections.

The target in the next data set is T2, Aβ42 oligomers (Homo sapiens, UniProt P05067).
T2 construct: commercial Aβ42 monomer powder (from GL biochem); purchased GL biochem
Put plainly: Fluorescence saturation binding assay with Aβ42 oligomers. As for the experimental part:
Aβ42 oligomers: The 0.5 mg monomeric films were dissolved in 1.1 mL PBS buffer (with final DMSO concentration less than 1%) and incubated at 4° C. overnight. The resulting solution was then centrifuged at 3000 rpm for 15 mins to remove the insoluble aggregates. The clear supernatant was then used for the following experiments. Aβ42 oligomers concentration was checked by measuring the absorbance of the supernatant at 280 nm.
as §1

In data set [3] the target is T3, native Aβ species in 5×FAD mice brain sections (Homo sapiens, UniProt P05067).
T3 construct: from tissue; host or cells: brain sections of 5×FAD transgenic mice
As to the kind of experiment: Fluorescence staining of 5×FAD mice brain sections, colocalization. Further details: species or system mouse. As to conditions: 5×FAD brain sections, compared with ThS. Here is the method:
Histological Staining of 5×FAD Mice Brain Sections. 5×FAD transgenic mice brain sections were blocked with bovine serum albumin (2% BSA in PBS, pH 7.4, 10 min). Then the mice brain sections were transferred to a PBS solution of the compound and incubated for 1 h. […] Then, the brain sections were treated with BSA again (5 min) followed by washing with PBS (3×2 min), DI water (3×2 min). Finally, the mice brain sections were mounted with non-fluorescent mounting media, and the images were obtained by using EVOS FL Auto 2. ImageJ Fiji program was used for colocalization analysis and determination of the Pearson's correlation coefficient. The primary antibodies were labeled with dye CF594 via Mix-n-Stain™ CF™ 594 Antibody Labeling Kit (Sigma Aldrich).

The target in data set [4] is T4, Aβ42 fibrils and oligomers (Homo sapiens, UniProt P05067).
T4 construct: commercial Aβ42 monomer powder (from GL biochem); purchased GL biochem
Put plainly: Fluorescence turn-on with Aβ42 fibrils and oligomers. The format is binding. Here is the method:
Fluorescence Spectral Testing of Compounds with Aps2 Fibrils and Aβ42 Oligomers. The formation of Aβ42 fibrils and oligomers was confirmed by the ThT fluorescence turn-on assay. The fluorescence spectra of ThT in PBS (100 μL PBS, 10.0 μM) were recorded as the baseline. After that, either Aβ42 fibrils or oligomers were added to ThT in PBS. The final volume of the solution mixture should be 100 μL, in which the final concentrations of ThT and Aβ42 species were10. μM and 25 μM, respectively.
For the interactions between Aps and compounds, the fluorescence spectra of the compounds' solution (100 μL PBS, 5.0 μM) were recorded as the baseline without adding various Aβ42 species.
After that, either Aβ42 fibrils or oligomers were added to the compounds' solutions in PBS. The final volume of the solution mixture should be 100 μL, in which the final concentrations of the compound and Aβ42 species were 5. μM and 25 μM, respectively.

Data set [5] is described as follows: Log D by octanol-PBS partition. To be noted: DCM compounds. The format is physicochemical. Here is the method: Log D measurements. The Log D value was measured following a published procedure using slight modifications. In general, compounds in 0.5 mL octanol was subjected to partition with 0.5 mL octanol-saturated PBS. The whole mixture was stirred vigorously for 5 min, and centrifuged at 2,000 rpm for 5 min. The top octanol layer was separated for later fluorescence measurement. The remaining PBS layer was partitioned with 0.5 mL PBS-saturated octanol, and the second top octanol layer was then separated after vigorous stirring and centrifuging at 2,000 rpm for another 5 min. The two octanol layers' fluorescence spectra were recorded. The log D value was calculated by the fluorescence intensity ratio at the compounds' emission wavelength for the above two octanol extractions.

The test system of data set [6] is human neuroblastoma cells (SH-SY5Y). As to the kind of experiment: Cytotoxicity of DCM compounds in SH-SY5Y cells. The format is cell-based. As to conditions: at 2 μM.
Description: as §2

Read-outs that look alike come from different tables or passages of the source.

T1 sequence (P05067 672-713 limits assumed): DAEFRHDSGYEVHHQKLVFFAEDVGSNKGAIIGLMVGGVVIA
T2 sequence (P05067 672-713 limits assumed): as above
T3 sequence (P05067 672-713 limits assumed): as above
T4 sequence (P05067 672-713 limits assumed): as above

As for `CN1CCN(C)CCN(Cc2cc(/C=C/C=C/C3=CC(=C(C#N)C#N)c4ccccc4O3)cc(CN3CCN(C)CCN(C)CC3)c2O)CC1` [DCM-OH-2-DT, 2-(2-((1E,3E)-4-(3,5-bis((4,7-dimethyl-1,4,7-triazonan-1-yl)methyl)-4-hydroxyphenyl)buta-1,3-dien-1-yl)-4H-chromen-4-ylidene)malononitrile], the “time to maximum brain NIR fluorescence signal after injection” value in data set [1] (jugular vein injection) was “about 15 min”. Besides, the “brain fluorescence signal, AD mice vs WT mice” value in data set [1] (7-month-old mice, 5-, 15-, and 30-min post injection) is given as “significantly higher fluorescence signal in AD mice”. Further, the equilibrium dissociation constant (Kd) (usually a measure of binding affinity in units of concentration) came out at 500 ± 110 nM on Aβ42 fibrils (Table 3, DCM compounds, read-out: Kd, Fibrils) and 430 ± 60 nM on Aβ42 oligomers (Table 3, DCM compounds, read-out: Kd, Oligomers). Further, the “colocalization with ThS after in vivo administration” value in data set [2] is on record as “good colocalization with ThS”. For the same compound, in data set [3], the “region of Aβ aggregates bound” value was “bind to the peripheral region of the Aβ aggregates”. Besides, in data set [4], the “maximum emission wavelength when binding to Aβ aggregates” value is reported as 730 nm. In addition, the logD (as a rule, the decadic logarithm of the distribution of all forms, ionised or not, between an organic phase and buffer at a given pH) in data set [5] worked out at 1.2 ± 0.07.
For the compound `N#CC(C#N)=C1C=C(/C=C/C=C/c2ccc(O)cc2)Oc2ccccc21` [DCM-OH-2], the Kd was found to be 80 nM at Aβ42 fibrils (read-out: Kd value to Aβ42 fibrils) and 120 nM on Aβ42 oligomers (read-out: Kd value to Aβ42 oligomers). Besides, the cell viability entry in data set [6] was “less than 80%”. In addition, the logD in data set [5] stood at 0.96 ± 0.07.

The values are drawn from patent US20260027243A1, “AMPHIPHILIC COMPOUNDS FOR ATTENUATING NEUROTOXICITY OF AMYLOID-beta OLIGOMERS AND DIAGNOSTIC METHODS” (THE BOARD OF TRUSTEES OF THE UNIVERSITY OF ILLINOIS, priority 2022, published 2026).
